Test results from ChEMBL document CHEMBL1201862, “PubChem BioAssay data set” (2004).
Calls of active or inactive are those of the source.

Assays:
[1] = blockers of bursicon-stimulated LGR2 cAMP reporter – cell-based, HEK293, CRE-luciferase reporter, cherry pick, set 2, dose response (AID 743343); format: functional;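 also: transfected cells were stimulated with diluted bursicon conditioned medium after compound addition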
[2] = molecular target: T1, Insulin-degrading enzyme (Homo sapiens, UniProt P14735); assay: recombinant IDE activation, cell-free – biochemical, fluorescence polarization, counter-screen for IDE activator project, dose response (AID 588681)
T1 sequence (P14735 whole entry): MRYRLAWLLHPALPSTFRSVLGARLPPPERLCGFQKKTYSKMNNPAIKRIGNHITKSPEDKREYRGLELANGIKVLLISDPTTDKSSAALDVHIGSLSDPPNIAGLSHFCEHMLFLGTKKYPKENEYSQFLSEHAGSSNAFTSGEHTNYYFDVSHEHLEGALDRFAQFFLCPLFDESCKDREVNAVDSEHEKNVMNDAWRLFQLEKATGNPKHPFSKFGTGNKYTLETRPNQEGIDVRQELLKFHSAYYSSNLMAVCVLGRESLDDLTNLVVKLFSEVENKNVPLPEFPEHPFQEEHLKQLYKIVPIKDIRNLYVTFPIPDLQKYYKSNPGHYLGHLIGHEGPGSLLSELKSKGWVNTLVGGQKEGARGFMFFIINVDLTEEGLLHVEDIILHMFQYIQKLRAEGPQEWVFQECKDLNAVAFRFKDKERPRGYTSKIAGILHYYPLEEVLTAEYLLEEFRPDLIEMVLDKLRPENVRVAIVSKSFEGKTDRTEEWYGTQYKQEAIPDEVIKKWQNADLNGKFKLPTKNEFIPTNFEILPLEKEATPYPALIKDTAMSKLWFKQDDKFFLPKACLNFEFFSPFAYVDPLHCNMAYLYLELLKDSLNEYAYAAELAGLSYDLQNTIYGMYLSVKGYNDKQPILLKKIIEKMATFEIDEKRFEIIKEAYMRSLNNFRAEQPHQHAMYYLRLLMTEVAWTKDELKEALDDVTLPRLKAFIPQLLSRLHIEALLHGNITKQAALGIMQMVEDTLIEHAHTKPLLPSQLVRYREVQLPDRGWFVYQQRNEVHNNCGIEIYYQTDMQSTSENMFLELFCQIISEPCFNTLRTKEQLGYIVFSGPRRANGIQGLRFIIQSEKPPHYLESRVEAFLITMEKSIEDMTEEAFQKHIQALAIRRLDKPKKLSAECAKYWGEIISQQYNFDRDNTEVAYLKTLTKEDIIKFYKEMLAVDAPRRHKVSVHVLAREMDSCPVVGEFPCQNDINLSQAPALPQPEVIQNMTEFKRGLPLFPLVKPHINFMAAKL

[3] = molecular target: T2, Ubiquitin-conjugating enzyme E2 N (Homo sapiens, UniProt P61088); format: functional;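 also: Dose-response confirmation in a TR-FRET assay detecting UBC13-driven polyubiquitin chain formation, inhibition measured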
T2 sequence (P61088 whole entry): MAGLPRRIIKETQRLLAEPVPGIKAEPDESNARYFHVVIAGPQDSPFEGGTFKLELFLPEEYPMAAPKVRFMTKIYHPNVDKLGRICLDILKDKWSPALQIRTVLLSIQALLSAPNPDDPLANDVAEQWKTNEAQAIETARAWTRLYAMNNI

[4] = molecular target: X-box-binding protein 1 (Homo sapiens, UniProt P17861); format: functional, Cricetulus griseus;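 also: confirmatory dose-response counter-screen serving a CHOP assay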
[5] = molecular target: T3, Replicative DNA helicase DnaB (Mycobacterium tuberculosis, UniProt P9WMR3); assay: DnaB intein splicing inhibitors, dose response, biochemical, cell-free fluorescence (AID 449749); format: functional
T3 sequence (P9WMR3 whole entry): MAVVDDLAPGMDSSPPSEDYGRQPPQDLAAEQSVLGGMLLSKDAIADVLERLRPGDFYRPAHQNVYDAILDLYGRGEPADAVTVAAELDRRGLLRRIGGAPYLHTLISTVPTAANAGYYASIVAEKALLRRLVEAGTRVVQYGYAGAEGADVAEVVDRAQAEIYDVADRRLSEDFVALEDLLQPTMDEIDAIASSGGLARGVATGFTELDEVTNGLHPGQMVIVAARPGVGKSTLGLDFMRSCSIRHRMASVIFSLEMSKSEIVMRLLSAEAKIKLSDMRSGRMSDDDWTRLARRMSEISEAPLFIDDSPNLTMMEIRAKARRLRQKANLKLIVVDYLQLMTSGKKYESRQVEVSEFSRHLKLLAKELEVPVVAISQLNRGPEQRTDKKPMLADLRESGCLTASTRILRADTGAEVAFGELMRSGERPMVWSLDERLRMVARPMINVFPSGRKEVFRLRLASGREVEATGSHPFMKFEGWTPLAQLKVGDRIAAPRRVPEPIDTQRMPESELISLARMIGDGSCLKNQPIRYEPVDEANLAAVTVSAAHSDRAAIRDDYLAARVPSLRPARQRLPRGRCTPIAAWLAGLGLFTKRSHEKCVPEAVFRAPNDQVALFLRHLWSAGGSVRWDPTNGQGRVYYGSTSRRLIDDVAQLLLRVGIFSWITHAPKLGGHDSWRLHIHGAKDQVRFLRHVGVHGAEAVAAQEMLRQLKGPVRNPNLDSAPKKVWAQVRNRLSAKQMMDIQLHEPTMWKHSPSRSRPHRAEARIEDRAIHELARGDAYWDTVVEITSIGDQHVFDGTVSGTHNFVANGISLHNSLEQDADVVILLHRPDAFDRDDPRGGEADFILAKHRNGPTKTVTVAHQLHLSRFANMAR

[6] = reduction of Shn3 3'UTR-driven luciferase in osteoblasts – cell-based, Clone20 osteoblasts, firefly luciferase, cherry-picked, dose response (AID 624132); format: functional;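 also: firefly luciferase luminescence from reporter carrying the Shn3 3'UTR in osteoblasts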
[7] = blockade of melanocortin 4 receptor signaling – cell-based, plate reader, cherry pick, counter-screen for LGR2 antagonist project, dose response (AID 743444); format: functional;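 also: transfected HEK 293 cells stimulated with alpha-MSH peptide; potency of inhibitors of the alpha-MSH evoked signal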
[8] = loss of viability in HepG2 cells – cell-based, CellTiter-Glo, cherry-picked, cytotoxicity control for Shn3 inhibitor project, dose response (AID 624134); format: functional
[9] = molecular target: T1, Insulin-degrading enzyme; assay: cellular IDE activation of Abeta substrate cleavage – fluorescence polarization, HEK cells, dose response (AID 588439); format: functional, cell-based
[10] = A549 cell cytotoxicity, dose response, cytotoxicity control, plate reader, cherry-pick, antagonist series (AID 743412); format: functional, cell-based
[11] = molecular target: Paired box protein Pax-8 (Homo sapiens, UniProt Q06710); assay: PAX8 transcriptional activity inhibition in RMG-I – RMG-I cells, luciferase, cherry-pick, dose response (AID 687027); format: functional, cell-based;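 also: luciferase reporter driven by Pax8 target thyroperoxidase promoter measured by SteadyGlo luminescence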
[12] = non-specific 3'UTR reporter inhibition in Clone20-Shn3RL – cell-based, Renilla luciferase, cherry-picked, counter-screen for Shn3 inhibitor project, dose response (AID 624133); format: functional
[13] = test system: HEK293; assay: membrane integrity loss in HEK cells – cell-based, fluorescence, cytotoxicity control for IDE activator project, dose response (AID 588440); format: functional; details: Homo sapiens;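 also: cytotoxicity by LDH release measuring loss of membrane integrity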
[14] = reduced cellular PGC1a acetyl-lysine signal – cell-based, cherry-picked samples, dose response (AID 720514); format: functional;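 also: potency may reflect raised or lowered acetylation signal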

Sequence of X-box-binding protein 1 (P17861 whole entry): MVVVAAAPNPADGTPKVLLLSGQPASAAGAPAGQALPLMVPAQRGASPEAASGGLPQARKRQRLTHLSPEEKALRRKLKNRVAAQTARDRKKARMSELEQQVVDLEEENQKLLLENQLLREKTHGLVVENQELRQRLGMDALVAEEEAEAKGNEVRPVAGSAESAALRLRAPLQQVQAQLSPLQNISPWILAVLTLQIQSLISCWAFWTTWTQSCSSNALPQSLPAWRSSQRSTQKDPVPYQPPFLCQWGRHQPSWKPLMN
Sequence of Paired box protein Pax-8 (Q06710 whole entry): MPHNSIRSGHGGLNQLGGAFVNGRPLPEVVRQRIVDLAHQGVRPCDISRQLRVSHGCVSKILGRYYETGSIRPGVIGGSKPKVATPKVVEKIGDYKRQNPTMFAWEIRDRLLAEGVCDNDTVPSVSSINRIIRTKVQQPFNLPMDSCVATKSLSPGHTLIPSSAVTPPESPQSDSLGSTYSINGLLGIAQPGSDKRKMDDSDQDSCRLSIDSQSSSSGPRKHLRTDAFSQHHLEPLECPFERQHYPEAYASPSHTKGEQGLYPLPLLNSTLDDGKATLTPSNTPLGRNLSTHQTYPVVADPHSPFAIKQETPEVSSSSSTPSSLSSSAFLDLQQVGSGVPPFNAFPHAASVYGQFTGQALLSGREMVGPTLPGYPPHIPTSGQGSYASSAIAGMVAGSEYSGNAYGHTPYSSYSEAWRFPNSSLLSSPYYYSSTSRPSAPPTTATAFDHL

**Q.** Which AC50 [1] does the source give for Cl.N=c1n(Cc2ccccc2)c2ccccc2n1CC(O)COc1ccc(Cl)cc1Cl (centres undefined) here?
**A.** Its AC50 is 23.1 µM (active).

**Q.** And the EC50 [2]?
**A.** Its EC50 is 40.1 µM (inactive).

**Q.** What about the IC50 [3] of the same molecule?
**A.** The IC50 was > 20 µM (inactive).

**Q.** What about the “Absolute IC50 (XBP1)” value [4] of the same molecule?
**A.** Its value is 10 µM.

**Q.** What about the AC50 [5] of the same molecule?
**A.** The AC50 was 2.51 µM (active).

**Q.** What about the AC50 [6] of the same molecule?
**A.** Its AC50 is 2.89 µM (active).

**Q.** And the AC50 [7]?
**A.** The AC50 was 26.6 µM (active).

**Q.** What about the AC50 [8] of the same molecule?
**A.** The AC50 was 14.3 µM (active).

**Q.** And the EC50 [9]?
**A.** Its EC50 is 11.2 µM (inactive).

**Q.** What about the AC50 [10] of the same molecule?
**A.** Its AC50 is 6.26 µM (active).

**Q.** What about the AC50 [11] of the same molecule?
**A.** Its AC50 is 17.2 µM (active).

**Q.** What about the AC50 [12] of the same molecule?
**A.** The AC50 was 5.16 µM (active).

**Q.** What about the IC50 [13] of the same molecule?
**A.** The IC50 was 8.27 µM (active).

**Q.** What about the AC50 [14] of the same molecule?
**A.** The AC50 was 6.94 µM (active).
